# According to US10292968B2, “Substituted heterocycles as bromodomain inhibitors” (Zenith Epigenetics Ltd., priority 2014, dated 2019):
# Where a name gives a salt, the structure may show the parent alone.
# What was measured:
# cMYC = test: Inhibition of cMYC expression (mRNA, real-time PCR) in MV4-11 cells; assay type: cell-based; details: Human AML MV4-11 cells, 3 h; for IC50: read-out: c-myc activity
# Method: MV4-11 cells (CRL-9591) were plated at a density of 2.5×10^4 cells per well in 96 well U-bottom plates and treated with increasing concentrations of test compound or DMSO (0.1%) in IMDM media containing 10% FBS and penicillin/streptomycin, and incubated for 3 h at 37° C. Triplicate wells were used for each concentration. Cells were pelleted by centrifugation and harvested using the mRNA Catcher PLUS kit according to manufacturer's instructions. The eluted mRNA isolated was then used in a one-step quantitative real-time PCR reaction, using components of the RNA UltraSense™ One-Step Kit (Life Technologies) together with Applied Biosystems TaqMan® primer-probes for cMYC and Cyclophilin. Real-time PCR plates were run on a ViiA™7 real time PCR machine (Applied Biosystems), data was analyzed, normalizing the Ct values for cMYC to an internal control, prior to determining the fold expression of each sample, relative to the control.
# [1] = target: T1, Brd 4 bromodomain 2 (BRD4(2)) (Homo sapiens, UniProt O60885); test: AlphaScreen inhibition of tetra-acetylated histone H4 binding to BRD4(2); details: BRD4(2) at 100 nM, tetra-acetylated histone H4 peptide, 30 min incubation; for IC50: read-out: Alpha Screen BRD4(2)
# T1 construct: N-terminally His-tagged bromodomains (BRD4(1) at 20 nM and BRD4(2) at 100 nM); made in house; host or cells: E. coli BL21(DE3)
# Method: (§1) Proteins were cloned and overexpressed with a N-terminal 6×His tag, then purified by nickel affinity followed by size exclusion chromatography. Briefly, E. coli BL21(DE3) cells were transformed with a recombinant expression vector encoding N-terminally Nickel affinity tagged bromodomains from Brd2, Brd3, Brd4. Cell cultures were incubated at 37° C. with shaking to the appropriate density and induced overnight with IPTG. The supernatant of lysed cells was loaded onto Ni-IDA column for purification. Eluted protein was pooled, concentrated and further purified by size exclusion chromatography. Fractions representing monomeric protein were pooled, concentrated, aliquoted, and frozen at −80° C. for use in subsequent experiments.
# (§2) Binding of tetra-acetylated histone H4 peptide (Millipore) and BET bromodomains was confirmed by Amplified Luminescent Proximity Homogenous Assay (AlphaScreen). N-terminally His-tagged bromodomains (BRD4(1) at 20 nM and BRD4(2) at 100 nM) and biotinylated tetra-acetylated histone H4 (10-25 nM) were incubated in the presence of nickel chelate acceptor beads and streptavidin donor beads (PerkinAlmer, 6760000K) added to a final concentration of 2 μg/ml under green light in a white 96 well microtiter plate (Greiner). For inhibition assays, serially diluted compounds were added to the reaction mixtures in a 0.1% final concentrations of DMSO. Final buffer concentrations were 50 mM HEPES, 100 mM NaCl and 0.1% BSA buffer, pH 7.4 and optimized to 30 min incubation time. Assay plates were read at 570 nm on a Synergy H4 Plate Reader (Biotek). IC50 values were determined from a dose response curve.
# [2] = target: T2, Brd4 bromodomain 1 (BRD4(1)) (Homo sapiens, UniProt O60885); test: AlphaScreen inhibition of tetra-acetylated histone H4 binding to BRD4(1); details: BRD4(1) at 20 nM, tetra-acetylated histone H4 peptide, 30 min incubation; for IC50: read-out: Alpha Screen BRD4(1)
# T2 construct: N-terminally His-tagged bromodomains (BRD4(1) at 20 nM and BRD4(2) at 100 nM); made in house; host or cells: E. coli BL21(DE3)
# Method: as §1, §2
# MV4-11 cells = test: Inhibition of cell proliferation in MV4-11 cells (Cell Titer Aqueous One); assay type: cell-based; details: Human AML MV-4-11 cells, 72 h; for IC50: MV4-11
# Method: MV4-11 cells (CRL-9591) were plated at a density of 5×10^4 cells per well in 96 well flat bottom plates and treated with increasing concentrations of test compound or DMSO (0.1%) in IMDM media containing 10% FBS and penicillin/streptomycin. Triplicate wells were used for each concentration and a well containing only media was used as a control. Plates were incubated at 37° C., 5% CO2 for 72 h before adding 20 μL of the Cell Titer Aqueous One Solution (Promega) to each well and incubated at 37° C., 5% CO2 for an additional 3-4 h. The absorbance was read at 490 nm in a spectrophotometer and the percentage of cell titer relative to DMSO-treated cells was calculated after correcting for background by subtracting the blank well's signal. IC50 values were calculated using the GraphPad Prism software.
Structure (SMILES),IC50 [1],IC50 [2],Alpha Screen BRD4(2) [1],other results
"CNC(=O)c1cccc(-c2[nH]c(-c3ccccc3)nc2-c2n[nH]c(=O)n2C2CC2)c1 [Example 3, 3-(4-(4-cyclopropyl-5-oxo-4,5-dihydro-1H-1,2,4-triazol-3-yl)-2-phenyl-1H-imidazol-5-yl)-N-methyl benzamide hydrochloride]",3 to 30 µM,3 to 30 µM,,
"NC(=O)c1cccc(-c2[nH]c(-c3ccccc3)nc2-c2n[nH]c(=O)n2C2CC2)c1 [Example 4, 3-(4-(4-cyclopropyl-5-oxo-4,5-dihydro-1H-1,2,4-triazol-3-yl)-2-phenyl-1H-imidazol-5-yl) benzamide hydrochloride]",,3 to 30 µM,Not Active,IC50 (cMYC): 3 to 30 µM; IC50 (MV4-11 cells): 3 to 30 µM
"O=C1CCc2ccc(-c3[nH]c(-c4ccccc4)nc3-c3n[nH]c(=O)n3C3CC3)cc21 [Example 5, 4-cyclopropyl-3-(5-(3-oxo-2,3-dihydro-1H-inden-5-yl)-2-phenyl-1H-imidazol-4-yl)-1H-1,2,4-triazol-5(4H)-one hydrochloride]",,,Not Active,Alpha Screen BRD4(1) [2]: Not Active
"CCC(=O)c1cccc(-c2[nH]c(-c3ccccc3)nc2-c2n[nH]c(=O)n2C2CC2)c1 [Example 6, 4-cyclopropyl-3-(2-phenyl-5-(3-propionylphenyl)-1H-imidazol-4-yl)-1H-1,2,4-triazol-5(4H)-one hydrochloride]",3 to 30 µM,0.3 to 3 µM,,IC50 (cMYC): 3 to 30 µM; IC50 (MV4-11 cells): 3 to 30 µM
"CC(=O)c1ccc(C)c(-c2[nH]c(-c3ccccc3)nc2-c2n[nH]c(=O)n2C2CC2)c1 [Example 11, 3-(5-(5-acetyl-2-methylphenyl)-2-phenyl-1H-imidazol-4-yl)-4-cyclopropyl-1H-1,2,4-triazol-5(4H)-one hydrochloride]",,3 to 30 µM,Not Active,
"CC(=O)c1cncc(-c2[nH]c(-c3ccccc3)nc2-c2n[nH]c(=O)n2C2CC2)c1 [Example 12, 3-(5-(5-acetylpyridin-3-yl)-2-phenyl-1H-imidazol-4-yl)-4-cyclopropyl-1H-1,2,4-triazol-5(4H)-one formate]",0.3 to 3 µM,3 to 30 µM,,
"Cn1ncc2ccc(-c3[nH]c(-c4ccccc4)nc3-c3n[nH]c(=O)n3C3CCC3)cc21 [Example 19, 4-cyclobutyl-3-(5-(1-methyl-1H-indazol-6-yl)-2-phenyl-1H-imidazol-4-yl)-1H-1,2,4-triazol-5(4H)-one]",3 to 30 µM,0.3 to 3 µM,,IC50 (cMYC): 3 to 30 µM
"Cn1ncc2ccc(-c3[nH]c(-c4ccccc4)nc3-c3n[nH]c(=O)n3CC(C)(C)C)cc21 [Example 20, 3-(5-(1-methyl-1H-indazol-6-yl)-2-phenyl-1H-imidazol-4-yl)-4-neopentyl-1H-1,2,4-triazol-5(4H)-one]",3 to 30 µM,0.3 to 3 µM,,
"CC(C)n1c(-c2nc(-c3ccccc3)[nH]c2-c2ccc3cnn(C)c3c2)n[nH]c1=O [Example 22, 4-isopropyl-3-(5-(1-methyl-1H-indazol-6-yl)-2-phenyl-1H-imidazol-4-yl)-1H-1,2,4-triazol-5(4H)-one]",3 to 30 µM,3 to 30 µM,,
"Cn1ncc2ccc(-c3[nH]c(-c4cccnc4)nc3-c3n[nH]c(=O)n3C3CC3)cc21 [Example 24, 4-cyclopropyl-3-(5-(1-methyl-1H-indazol-6-yl)-2-(pyridin-3-yl)-1H-imidazol-4-yl)-1H-1,2,4-triazol-5(4H)-one dihydrochloride]",3 to 30 µM,3 to 30 µM,,

# Further lines, with some results ahead:
IC50 [1],IC50 [2],Alpha Screen BRD4(2) [1],Structure (SMILES),other results
3 to 30 µM,3 to 30 µM,,"COC(=O)c1ccc(C)c(-c2[nH]c(-c3ccccc3)nc2-c2n[nH]c(=O)n2C2CC2)c1 [Example 2, methyl 3-(4-(4-cyclopropyl-5-oxo-4,5-dihydro-1H-1,2,4-triazol-3-yl)-2-phenyl-1H-imidazol-5-yl)-4-methyl benzoate hydrochloride]",c-myc activity (cMYC): Not Active; Cell Proliferation activity (MV4-11 cells): Not Active
3 to 30 µM,0.3 to 3 µM,,"Cc1nn(C)c2ccc(-c3[nH]c(-c4ccccc4)nc3-c3n[nH]c(=O)n3C3CC3)cc12 [Example 15, 4-cyclopropyl-3-(5-(1,3-dimethyl-1H-indazol-5-yl)-2-phenyl-1H-imidazol-4-yl)-1H-1,2,4-triazol-5(4H)-one hydrochloride]",
0.3 to 3 µM,≤ 0.3 µM,,"Cc1noc2ccc(-c3[nH]c(-c4ccccc4)nc3-c3n[nH]c(=O)n3C3CC3)cc12 [Example 16, 4-cyclopropyl-3-(5-(3-methylbenzo[d]isoxazol-5-yl)-2-phenyl-1H-imidazol-4-yl)-1H-1,2,4-triazol-5(4H)-one]",
,,Not Active,"Cn1ncc2ccc(-c3[nH]c(-c4ccccc4)nc3-c3n[nH]c(=O)n3CC3CC3)cc21 [Example 17, 4-(cyclopropylmethyl)-3-(5-(1-methyl-1H-indazol-6-yl)-2-phenyl-1H-imidazol-4-yl)-1H-1,2,4-triazol-5(4H)-one]",Alpha Screen BRD4(1) [2]: Not Active
3 to 30 µM,0.3 to 3 µM,,"CC(C)Cn1c(-c2nc(-c3ccccc3)[nH]c2-c2ccc3cnn(C)c3c2)n[nH]c1=O [Example 18, 4-isobutyl-3-(5-(1-methyl-1H-indazol-6-yl)-2-phenyl-1H-imidazol-4-yl)-1H-1,2,4-triazol-5(4H)-one]",c-myc activity (cMYC): Not Active
,3 to 30 µM,Not Active,"Cn1ncc2ccc(-c3[nH]c(-c4ccccc4)nc3-c3n[nH]c(=O)n3C3CCCC3)cc21 [Example 21, 4-cyclopentyl-3-(5-(1-methyl-1H-indazol-6-yl)-2-phenyl-1H-imidazol-4-yl)-1H-1,2,4-triazol-5(4H)-one]",
3 to 30 µM,≤ 0.3 µM,,"Cn1ncc2ccc(-c3[nH]c(-c4ccncc4)nc3-c3n[nH]c(=O)n3C3CC3)cc21 [Example 23, 4-cyclopropyl-3-(5-(1-methyl-1H-indazol-6-yl)-2-(pyridin-4-yl)-1H-imidazol-4-yl)-1H-1,2,4-triazol-5(4H)-one dihydrochloride]",
3 to 30 µM,0.3 to 3 µM,,"Cn1cc(-c2nc(-c3n[nH]c(=O)n3C3CC3)c(-c3ccc4cnn(C)c4c3)[nH]2)cn1 [Example 25, 4-cyclopropyl-3-(5-(1-methyl-1H-indazol-6-yl)-2-(1-methyl-1H-pyrazol-4-yl)-1H-imidazol-4-yl)-1H-1,2,4-triazol-5(4H)-one hydrochloride]",
3 to 30 µM,3 to 30 µM,,"Cn1ncc2ccc(-c3[nH]c(-c4cn[nH]c4)nc3-c3n[nH]c(=O)n3C3CC3)cc21 [Example 26, 4-cyclopropyl-3-(5-(1-methyl-1H-indazol-6-yl)-2-(1H-pyrazol-4-yl)-1H-imidazol-4-yl)-1H-1,2,4-triazol-5(4H)-one hydrochloride]",
,3 to 30 µM,Not Active,"Cn1nc(-c2nc(-c3ccccc3)[nH]c2-c2ccc3cnn(C)c3c2)n(C2CC2)c1=O [Example 27, 4-cyclopropyl-1-methyl-3-(5-(1-methyl-1H-indazol-6-yl)-2-phenyl-1H-imidazol-4-yl)-1H-1,2,4-triazol-5(4H)-one hydrochloride]",
